In patent publication US10414718B2, “Dezocine analogue” (priority 2016, dated 2019):
Structures can show the parent of a compound that is named as a salt.

Tests used:
Format in all cases: cell-based
[1] = target: T1, κ opioid receptor (Homo sapiens, UniProt P41145); assay: FLIPR intracellular calcium signal test, HEK293-κ cells; details: for EC50: EC50 (activation) test, read-out: Kapp receptor EC50; for IC50: IC50 (inhibition) test against EC80 of positive agonist, read-out: Kapp receptor IC50
T1 construct: expressed in transfected cells
Description: (§1) Fluorescence imaging plate reader FLIPR was used to detect changes of intracellular calcium signals. EC50 and IC50 values of the compounds were used as indicators to evaluate the activation or inhibition of the compounds on μ, κ, and δ opioid receptors.
(§2) Cell lines: HEK293-μ, HEK293-κ and HEK293-δ, stable-transfected cell lines HEK293-μ, HEK293-κ and HEK293-δ; Cell culture media (DMEM, Invitrogen #11965118, 10% fetal bovine serum Invitrogen #10099141, Geneticin Selective Antibiotic (G418) 300 μg/mL, Invitrogen #10131027, Blasticidin-S HCL 2 ug/mL Invitrogen #A1113902)
(§3) 1. Cell Seeding (HEK293-μ, HEK293-κ and HEK293-δ Cells)
(§4) 1) Preheating medium, pancreatic enzyme, and DPBS in a 37° C. water bath. Aspirating the culture medium from the cell culture flask and washing it with 10 mL DPBS;
(§5) 2) Adding the preheated pancreatic enzyme solution to the cell culture flask, rotating the flask slightly to make the pancreatic enzymes evenly cover the cell surface of the flask, and then putting it into a 37° C., 5% CO2 incubator to digest for 1-2 minutes;
(§6) 3) Suspending the cells with 10-15 mL culture medium in each T150 cm^2 cell culture flask, centrifugating at 800 rpm for 5 minutes, and resuspending the cells with 10 mL culture medium, aspirating 1 mL cell resuspension to be counted with Vi-cell;
(§7) 4) Diluting HEK293-μ, HEK293-κ and HEK293-δ cells to 5×10^5/mL with culture medium, use multichannel pipette to add diluted cells into 384 plate (Greiner #781946) (50 μL/well, 25000 cells/well for HEK293-μ, HEK293-κ and HEK293-δ cells). Placing the cell plate in a 37° C., 5% CO2 incubator overnight.
(§8) 2. Adding Compound Samples:
(§9) 1) Diluting the compound to 20 mM with DMSO, 3 fold diluted, 8 gradients, double reduplicative wells, and adding it to the compound plate using an Echo ultrasonic liquid handler device (Echo liquid handler).
(§10) 1) Washing off the cell culture medium in 384 plate with vacuum pump, adding 20 μL Fluo-4 Direct fluorescent dye, then incubating in a 37° C., 5% CO2 incubator for 50 minutes, followed by equilibrating at room temperature for 10 minutes.
(§11) 2) EC50 test: Adding 20 uL HBSS buffer (containing 20 mM HEPES) to the compound plate, mixing well and centrifugating. Placing the cell plate and compound plate into FLIPR and reading the fluorescence value.
(§12) Calculating the EC80 value with the EC50 value of the positive agonist, preparing 4× EC80 solution, adding it to the 384 compound plate by multichannel pipette, and mixing well and centrifugating.
(§13) 4) IC50 test: In FLIPR, successively placing 4× EC80 plate, cell plate, FLIPR tip, running the program and reading the fluorescence value.
(§14) 4. Data Analyzing: Using Prism 5.0 to Analyze the Data and Calculate the EC50 and IC50 Values of the Compounds.

[2] = target: T2, μ opioid receptor (Homo sapiens, UniProt P35372); assay: FLIPR intracellular calcium signal test, HEK293-μ cells; details: for EC50: EC50 (activation) test, read-out: Mu receptor EC50; for IC50: IC50 (inhibition) test against EC80 of positive agonist, read-out: Mu receptor IC50
T2 construct: expressed in transfected cells
Description: as §1, §2, §3, §4, §5, §6, §7, §8, §9, §10, §11, §12, §13, §14

[3] = target: T3, δ opioid receptor (Homo sapiens, UniProt P41143); assay: FLIPR intracellular calcium signal test, HEK293-δ cells; details: for EC50: EC50 (activation) test, read-out: Delt receptor EC50; for IC50: IC50 (inhibition) test against EC80 of positive agonist, read-out: Delt receptor IC50
T3 construct: expressed in transfected cells
Description: as §1, §2, §3, §4, §5, §6, §7, §8, §9, §10, §11, §12, §13, §14

T1 sequence (P41145 whole entry): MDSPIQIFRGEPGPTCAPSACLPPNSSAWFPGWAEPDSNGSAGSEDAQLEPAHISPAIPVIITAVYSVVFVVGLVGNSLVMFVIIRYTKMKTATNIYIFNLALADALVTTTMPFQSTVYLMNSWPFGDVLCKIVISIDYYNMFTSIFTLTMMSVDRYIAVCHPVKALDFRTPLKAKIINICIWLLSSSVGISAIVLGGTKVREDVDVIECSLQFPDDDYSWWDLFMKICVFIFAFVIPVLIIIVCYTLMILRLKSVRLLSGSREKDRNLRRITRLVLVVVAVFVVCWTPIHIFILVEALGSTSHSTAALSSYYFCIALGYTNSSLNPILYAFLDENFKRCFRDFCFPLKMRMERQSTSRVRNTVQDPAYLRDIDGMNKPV
T2 sequence (P35372 whole entry): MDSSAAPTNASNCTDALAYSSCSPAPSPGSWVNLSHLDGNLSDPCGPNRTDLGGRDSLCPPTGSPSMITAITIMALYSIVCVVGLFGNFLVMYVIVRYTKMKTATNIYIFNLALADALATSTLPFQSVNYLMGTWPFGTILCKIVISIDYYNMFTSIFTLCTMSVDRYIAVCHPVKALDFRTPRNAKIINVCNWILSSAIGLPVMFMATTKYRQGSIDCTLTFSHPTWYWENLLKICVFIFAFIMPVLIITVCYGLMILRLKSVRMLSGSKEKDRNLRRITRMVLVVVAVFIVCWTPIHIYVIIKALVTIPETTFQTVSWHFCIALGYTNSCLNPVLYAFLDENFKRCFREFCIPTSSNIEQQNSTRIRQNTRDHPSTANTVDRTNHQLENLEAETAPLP
T3 sequence (P41143 whole entry): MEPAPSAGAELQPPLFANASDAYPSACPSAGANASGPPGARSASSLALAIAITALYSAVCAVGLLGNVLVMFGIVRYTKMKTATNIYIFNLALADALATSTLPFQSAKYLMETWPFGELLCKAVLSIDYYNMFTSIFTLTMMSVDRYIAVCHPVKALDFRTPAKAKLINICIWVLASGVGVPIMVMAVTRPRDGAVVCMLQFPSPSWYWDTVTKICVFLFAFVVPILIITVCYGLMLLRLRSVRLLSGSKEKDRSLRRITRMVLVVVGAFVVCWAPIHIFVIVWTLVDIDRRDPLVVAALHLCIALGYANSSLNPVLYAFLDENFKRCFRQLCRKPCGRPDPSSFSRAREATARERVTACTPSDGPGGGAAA

| Compound | EC50 [1] [µM] | IC50 [1] [µM] | EC50 [2] [µM] | IC50 [2] [µM] | EC50 [3] [µM] | IC50 [3] [µM] |
| --- | --- | --- | --- | --- | --- | --- |
| CC12CCCCC(Cc3c(F)cc(O)cc31)C2N (single isomer, unassigned) [Compound 32] | 0.1 to 1 | 0.1 to 1 | 0.1 to 1 | 0.1 to 1 | > 100 | 1 to 10 |
| CC12CCCCC(Cc3c(F)cc(O)cc31)C2N (single isomer, unassigned) [Compound 33] | 0.1 to 1 | 0.1 to 1 | 0.1 to 1 | 1 to 10 | 1 to 10 | 1 to 10 |
| Cc1cc(O)cc2c1CC1CCCCCC2(C)C1N (stereo not shown) [Compound 1] | > 100 | 0.1 to 1 | > 100 | ≤ 0.1 | > 100 | 1 to 10 |
| CC12CCCCCC(Cc3ccc(O)cc31)C2N (stereo not shown) [Compound 2, reference compound] | > 100 | 1 to 10 |  |  | > 100 | > 100 |
| CC12CCCCCC(Cc3c(Cl)cc(O)cc31)C2N (stereo not shown) [Compound 3] | > 100 | 0.1 to 1 | 0.1 to 1 | 0.1 to 1 | > 100 | 1 to 10 |
| CC12CCCCCC(Cc3ccc(O)c(F)c31)C2N (stereo not shown) [Compound 4] | > 100 | 1 to 10 | 0.1 to 1 | 0.1 to 1 | > 100 | > 100 |
| CC12CCCCCC(Cc3cc(O)c(O)cc31)C2N (stereo not shown) [Compound 5] | 1 to 10 | 10 to 100 | 1 to 10 | 10 to 100 | > 100 | > 100 |
| CC12CCCCCC(Cc3c(F)cc(O)cc31)C2N (stereo not shown) [Compound 6] | > 100 | 1 to 10 | ≤ 0.1 | 0.1 to 1 | > 100 | 1 to 10 |
| COc1cc(O)cc2c1CC1CCCCCC2(C)C1N (stereo not shown) [Compound 7] | > 100 | 1 to 10 | > 100 | 1 to 10 | > 100 | > 100 |
| CC12CCOCCC(Cc3ccc(O)cc31)C2N (stereo not shown) [Compound 8] | > 100 | 1 to 10 | 0.1 to 1 | 1 to 10 | > 100 | > 100 |
| CCc1cc(O)cc2c1CC1CCCCCC2(C)C1N (stereo not shown) [Compound 9] | > 100 | 1 to 10 | > 100 | 1 to 10 | > 100 | > 100 |
| CC(C)c1cc(O)cc2c1CC1CCCCCC2(C)C1N (stereo not shown) [Compound 10] | > 100 | 10 to 100 | > 100 | 10 to 100 | > 100 | > 100 |
| CC12CCCCCC(Cc3c(-c4ccccc4)cc(O)cc31)C2N (stereo not shown) [Compound 11] | 10 to 100 | > 100 | > 100 | > 100 | > 100 | > 100 |
| CC12CCCCCC(Cc3cc(Br)c(O)cc31)C2N (stereo not shown) [Compound 12] | > 100 | > 100 | 10 to 100 | 10 to 100 | > 100 | > 100 |
| CC(C)c1cc2c(cc1O)C1(C)CCCCCC(C2)C1N (stereo not shown) [Compound 13] | 10 to 100 | 10 to 100 | 10 to 100 | 10 to 100 | > 100 | > 100 |
| Cc1cc2c(cc1O)C1(C)CCCCCC(C2)C1N (stereo not shown) [Compound 14] | > 100 | 10 to 100 | 10 to 100 | 10 to 100 | > 100 | > 100 |
| CC12CCCCCC(Cc3cc(C4CC4)c(O)cc31)C2N (stereo not shown) [Compound 15] | 10 to 100 | > 100 | > 100 | > 100 | > 100 | > 100 |
| CC12CCCCCC(Cc3c(CO)cc(O)cc31)C2N (stereo not shown) [Compound 18] | > 100 | > 100 | > 100 | 1 to 10 | > 100 | > 100 |
| CC12CCCCCC(Cc3cc(C#N)c(O)cc31)C2N (stereo not shown) [Compound 19] | > 100 | > 100 | > 100 | > 100 | > 100 | > 100 |
| CC12CCCCCC(Cc3cc(Cl)c(O)c(Cl)c31)C2N (stereo not shown) [Compound 20] | > 100 | 10 to 100 | > 100 | 10 to 100 | > 100 | > 100 |
| C[C@]12CCCCC[C@H](Cc3c(F)cc(O)cc31)[C@@H]2N [Compound 22] | > 100 | 1 to 10 | 1 to 10 | 0.1 to 1 | > 100 | 10 to 100 |
| C[C@]12CCCCC[C@H](Cc3c(Cl)cc(O)cc31)[C@H]2N [Compound 24] | > 100 | 1 to 10 | 10 to 100 | 0.1 to 1 | > 100 | 1 to 10 |
| C[C@@]12CCOCC[C@@H](Cc3ccc(O)cc31)[C@@H]2N [Compound 25] | > 100 | 1 to 10 | 0.1 to 1 | 1 to 10 | > 100 | 1 to 10 |
| C[C@]12CCOCC[C@H](Cc3ccc(O)cc31)[C@H]2N [Compound 26] | > 100 | > 100 | > 100 | 10 to 100 | > 100 | > 100 |
| CC12CCCCCC(Cc3c(O)cc(O)cc31)C2N (stereo not shown) [Compound 27] | > 100 | 10 to 100 | > 100 | 1 to 10 | > 100 | > 100 |
| CCCC12CCCCC(Cc3c(F)cc(O)cc31)C2N (stereo not shown) [Compound 30] | > 100 | 0.1 to 1 | 0.1 to 1 | 0.1 to 1 | > 100 | 10 to 100 |
| CC(C)CC12CCCCC(Cc3c(F)cc(O)cc31)C2N (stereo not shown) [Compound 31] | > 100 | 10 to 100 | 10 to 100 | 10 to 100 | > 100 | > 100 |
| CC12CCCCCC(Cc3cc(Cl)c(O)cc31)C2N (stereo not shown) [Hydrochloride of Compound 16] | > 100 | 1 to 10 | 10 to 100 | 1 to 10 | > 100 | > 100 |
| CC12CCCCCC(Cc3cc(F)c(O)cc31)C2N (stereo not shown) [Hydrochloride of Compound 17] | > 100 | 10 to 100 | 1 to 10 | 1 to 10 | > 100 | > 100 |
